Experimental data as given in publication PMC10530836, “Synthesis, Molecular Docking, and Biological Evaluation of Novel Anthranilic Acid Hybrid and Its Diamides as Antispasmodics” (International Journal of Molecular Sciences, 2023).

Key:
[1] = tested on: gastric smooth muscle preparations (SMPs) from Wistar rats; assay: Ex vivo smooth muscle relaxant activity; parameters: species or system rat; conditions: for Tonic relaxation: 5 × 10^−5 mol/L, SM pre-contracted with 1 × 10^−7 mol/L CCh
Description: The utilization of an SM preparation from the corpus of a rat stomach that had been pharmacologically pre-contracted was the main goal of our work. The excitatory neurotransmitter acetylcholine (ACh) in the enteric nervous system is appropriate for this purpose. It affects the digestive system by increasing the amplitude of digestive contractions and peristalsis in the stomach. We evaluated the viability of the SM using their stimulatory impact. Via muscarinic (M2 and M3) receptors, ACh and its counterpart cholinergic agonist carbachol (CCh, carbamylcholine) cause excitatory motor responses in GI SM cells. Unlike ACh, which breaks down quickly, CCh has a long-lasting response. Therefore, we used CCh to start the induced muscle contraction. […] A persistent, prolonged tonic contraction that is brought on by the extracellular inflow of Ca^2+ into SM cells occurs next. The relaxation effects of the tested compounds 3 and 4a–e were investigated by cumulative addition of the tested substances in concentrations of 1 × 10^−7, 5 × 10^−7, 1 × 10^−6, 5 × 10^−6, 1 × 10^−5, 5 × 10^−5, and 1 × 10^−4 mol/L at the plateau of the CCh-induced contraction. In order to measure relaxation, the percent decrease in contractile tension from the 1 × 10^−7 mol/L CCh-induced maximum was used. All subsequent reactions to chemicals were reported as a percentage of the submaximal SM contractile responses elicited by CCh, which were taken as 100% values and expressed as a base value for all subsequent responses (Figure 10A). Results were presented as mean ± SD.
SMPs with dimensions 1.0–1.5 mm wide and 10–12 mm long were obtained from adult male Wistar rats weighing about 270 g. […]
The pH of the solution was measured before each experiment using a pH-meter HI5521 (Hanna Instruments, Smithfield, RI, USA). […]
Experiments were performed to investigate the cumulative dose-dependent relaxation effects of compounds 3 and 4a–e on gastric SMPs, pre-contracted with CCh (1 × 10^−^7 mol/L). The CA of the SMPs and the changes in substance-evoked reactions were detected isometrically. […]

[2] = tested on: K-562, LAMA-84, T-24, CCL-1 cell lines; assay: MTT cell viability assay, cell line panel; assay type: cell-based; conditions: leukemic cells LAMA-84 and K-562; read-out: IC50 estimates
Procedure: Based on the PASS online and the ProToxII in silico calculations, the evaluation of the cytotoxic activity of the compounds was the other object of our investigation. A series of MTT experiments were conducted to evaluate the in vitro effects of the tested compounds on cell growth in both normal (murine fibroblast CCL-1 cells) and malignant human cell lines of leukemic (K-562, LAMA-84) and epithelial (T-24 bladder carcinoma cells) origin.
To evaluate the biocompatibility of the hybrid compounds, their in vitro antiproliferative activity was assessed in a panel of human malignant cell lines of different origin (K-562 and LAMA-84 suspension-growing myeloid leukemia cells, positive for the Philadelphia chromosome, and the urothelial bladder carcinoma cell line T-24 of adherent type). Non-malignant murine fibroblast cells (CCL-1) were also used as a screening platform. […]
The effects of the newly synthesized anthranilic derivatives on cell viability were measured using a validated colorimetric assay for evaluating cell viability, known as the Mosmann MTT method. […] The latter was dissolved in isopropyl alcohol solution containing 5% formic acid prior to absorbance measurement at 550 nm. Collected absorbance values were blanked against MTT and isopropanol solution and normalized to the mean value of untreated control (100% cell viability).

IC50 [2] [µM] | Structure (SMILES) | Tonic relaxation [1] [%] | effect on amplitude of spontaneous contractions ([1]; submaximal concentration of 5 × 10^−5 mol/L)
– | Nc1ccccc1C(=O)NCCc1cccc(Cl)c1 [Compound 3, 2-amino-N-(3-chlorophenethyl)benzamide] | 59 | more than 50%
30 to 60 | O=C(Nc1ccccc1C(=O)NCCc1cccc(Cl)c1)c1ccccc1 [Compound 4b, 2-benzamido-N-(3-chlorophenethyl)benzamide] | – | –
– | CC(=O)Nc1ccccc1C(=O)NCCc1cccc(Cl)c1 [Compound 4a, 2-acetamido-N-(3-chlorophenethyl)benzamide] | 52 | –
